# Measured values from patent US20240418701A1, “SINGLE MOLECULE IDEN[…] A REACTIVE HETERO-NANOPORE” (priority 2021, published 2024).
# Assays:
# [1] = target: T1, MspA-PBA (boronic acid appended hetero-octameric MspA) (Mycolicibacterium smegmatis, UniProt A0QR29, D117C/D118N/D120N/D145R/D161R/E166K); assay: Single channel recording of alditol binding to MspA-PBA nanopore (standards and zero-sugar drinks); set-up: species or system Mycobacterium smegmatis; conditions: N=3; for ratio (mean current percentage blockage) / std (standard deviation of the blocking level): alditol 4 mM (glycerol 8 mM) in cis
# T1 construct: H6 (hexa-histidine) (C); 3-(maleimide) phenylboronic acid (MPBA) adduct on the thiol of Cys90; made in house; host or cells: E. coli BL21 (DE3) pLysS, co-expression from pETDuet-1
# Method: FIG. 88: Definition of event parameters. (a) A representative electrophysiology trace containing nanopore events. Xylitol was treated as the model analyte. I0 is the open pore current and Ib is the residual current caused by alditol blockade. ratio is derived from (I0−Ib)/I0, which is defined as the percentage blockage. τoff represents the dwell time of an event. τon represents the inter-event interval. std is the standard deviation value of the blockage level. (b-c) The histogram plot of ratio (b) and std (c) acquired from a continually recorded trace. The histograms were Gaussian fitted and the peaks of the fitting results respectively represent the mean value of ratio and the mean std. (d-e) The histogram plots of τoff (d) and τon (e) acquired from a continually recorded trace. The histogram plots were respectively fit to a single exponential curve, according to the equation y=a*exp (−x/τ), from which the mean event dwell time (τoff) (d) and the mean inter-event interval (τon) (e) were respectively derived. If not otherwise stated, all results in this manuscript were described by event parameters defined above.
# All subsequent nanopore measurements were carried out with a 1.5 M KCl buffer (1.5 M KCl, 10 mM 3-(N-Morpholino) propanesulfonic acid (MOPS), pH 7.0) and a +100 m V continually applied potential (Method 1 in Example 3). 13 types of alditols, which were derived from the reduction of the carbonyl group of C3-C6 monoaldoses were treated as model polyols (FIGS. 77b and 83). The PBA of MspA-PBA can complex with a polyol, forming a cyclic ester at the pore constriction and resulting in the corresponding nanopore event being reported. All alditols were added to the cis side of the pore and the final concentration of alditols was set at 4 mM with the exception of glycerol, which was set at 8 mM instead. […] In addition, single molecule sensing of glycerol and D-Sorbitol by MspA-PBA are as shown in FIGS. 104 and 105, respectively.
# To describe the sensing events quantitatively, event parameters such as the open-pore current (I0), the current blockade (Ib), the percentage blockage (ratio), the event dwell time (τoff), the inter-event intervals (τon) and the standard deviation value of the blockage level (std) were defined as described in FIG. 88. The percentage blockage, also referred to for simplicity as ratio, is defined as (I0−Ib)/I0.
# Quantitatively, the reciprocal of the mean inter-event interval (1/τon, N=3) is linearly correlated with the alditol concentration, consistent with a bimolecular model. The mean event dwell time τoff (N=3) however is independent of the alditol concentration, and this is consistent with a unimolecular dissociation mechanism (FIGS. 89e-92e, Table 18). […] The binding constant for borate cyclic ester formation for alditols increases as the number of hydroxyl groups in the alditol increases (FIG. 77c and Table 18), consistent with conclusions drawn previously from the corresponding NMR measurements.^52 Nanopore measurements were also performed with different applied voltages. […] This is expected because all alditols tested in this paper are electrically neutral and the formation of a borate ester is independent of the local electric field.
# All nanopore measurements were performed as described previously.^1,2 Briefly, the measurement device has two custom chambers separated by a thick Teflon film containing a drilled (˜100 μm) aperture. Before the measurement, the aperture was first treated with 0.5% (v/v) hexadecane in pentane and set for pentane evaporation. Electrolyte buffer (500 μL) was added to the electrically grounded chamber (cis chamber) and the opposing chamber (trans chamber). All nanopore measurements in this paper were performed with a 1.5 M KCl buffer (1.5 M KCl, 10 mM MOPS, pH 7.0). Two custom-made Ag/AgCl electrodes were placed in both chambers in contact with the buffers and the patch-clamp amplifier to form a closed circuit. […]
# [2] = target: T2, Octameric M2 MspA (Mycolicibacterium smegmatis, UniProt A0QR29, D117N/D118N/D120N/D145R/D161R/E166K); assay: Alditol sensing using M2 MspA nanopore (control without PBA); type: binding, Mycobacterium smegmatis; conditions: alditol 4 mM in cis, +100 mV
# T2 construct: made in house; host or cells: E. coli BL21 (DE3)
# Method: FIG. 87: Alditol sensing using M2 MspA nanopore. Glycerol, erythritol, xylitol and sorbitol were used as the representative alditols with different number of hydroxyl groups. All measurements were carried out as described in Methods 1 in Example 3. Octameric M2 MspA was applied as the nanopore sensor. A transmembrane potential of +100 m V was continually applied. Each alditol was added to cis with a final concentration of 4 mM.
# The octameric M2 MspA was used as a control in FIG. 87. It was expressed with E. coli BL21 (DE3) and purified by nickel affinity chromatography as reported previously.^1
# [3] = target: T3, MspA-PBA (phenylboronic acid modified hetero-octameric (N90C)1(M2)7 MspA) (Mycolicibacterium smegmatis, UniProt A0QR29, D117C/D118N/D120N/D145R/D161R/E166K); type: binding, Mycobacterium smegmatis; conditions: +200 mV
# T3 construct: H6 (hexa-histidine) (C); 3-(maleimide) phenylboronic acid (MPBA) adduct on the thiol of Cys90; made in house; host or cells: E. coli BL21 (DE3) pLysS, co-expression from pETDuet-1
# Method: FIG. 46: Definition of event parameters. […] The measurement was carried out as described in Methods in Example 2. The chambers were filled with a 1.5 M KCl buffer (1.5 M KCl, 10 mM MOPS, pH 7.0). A transmembrane potential of +200 mV was continually applied. AMP was added to cis with a final concentration of 300 μM. The open pore current (Ip), the residual current (Ib), the dwell time (τoff) and the inter-event duration (τon) are defined as marked on the trace. The percentage blockage (% Ib) is defined as (Ip−Ib)/Ip. The noise amplitude (S.D.) is defined as the standard deviation of the blockage level.
# NMPs consist of a ribose, a phosphate group and a nucleobase, serving as monomeric units of RNA. […] Experimentally, single channel recording was performed using MspA-PBA in a 1.5 M KCl buffer (1.5 M KCl, 10 mM MOPS, pH 7.0) (Methods in Example 2). A transmembrane potential of +200 mV was continually applied. Four canonical NMPs, adenine mononucleotide (AMP), guanine mononucleotide (GMP), cytosine mononucleotide (CMP) and uracil mononucleotide (UMP) were tested as analytes (FIG. 33d). Either type of NMP was added to cis at a final concentration of 300 μM. Subsequently, successive resistive pulses caused by either type of NMP were immediately observed (FIG. 33d). However, no events were observed when M2 MspA was tested, confirming that the PBA located at the pore constriction is critical in the generation of NMP sensing events (FIG. 44). At this condition, ˜1800 events/h were obtained from each pore. The pore could normally withstand a few hours of continuous measurement. Deoxyribonucleoside monophosphate (dNMP) fails to report any event when sensed by MspA-PBA (FIG. 45). This is expected because dNMPs have no cis-diol structure and can't form the boronate ester which is necessary for sensing. The molecular mechanism of sensing which results from reversible covalent bond formation between an NMP and the PBA at the pore constriction is thus confirmed.
# To describe NMP sensing events quantitatively, the event dwell time (τoff), the inter-event interval (τon), the percentage blockage (% Ib=(Ip−Ib)/Ip) and the noise amplitude (S.D.) were derived as described in FIG. 46. Generally, the histograms of τoff and τon show an exponential distribution, and could be fitted to derive the mean time constants τoff or τon, respectively. The histograms of % Ib and S.D. show a Gaussian distribution, which could be fitted to derive the mean percentage blockage % Ib and S.D., respectively. During NMP sensing, by varying the NMP concentrations in cis, the reciprocal of dwell time (1/τoff) remains constant, consistent with a unimolecular dissociation mechanism. Whereas the reciprocal of the inter-event interval (1/τon) linearly correlates with the NMP concentration in cis (Tables 8-11, FIG. 47-50), consistent with a bimolecular model. The dependence of the applied voltage during NMP sensing was investigated using AMP as a representative analyte. […] This is expected because in a pH 7.0 buffer, the phosphate group of NMP is negatively charged and the electrophoretic force applied on the NMP analyte can strongly regulate the rate of event appearance and the event dwell time.
# [4] = voltage series: +60 mV, glycerol 12 mM, other alditols 8 mM
# [5] = voltage series: +80 mV, glycerol 12 mM, other alditols 8 mM
# [6] = voltage series: +100 mV, glycerol 12 mM, other alditols 8 mM
# [7] = voltage series: +120 mV, glycerol 12 mM, other alditols 8 mM
# T1 sequence (A0QR29 other isoform, or with tags, fused parts or gaps D117N/D118N/D120N/D145R/D161R/E166K): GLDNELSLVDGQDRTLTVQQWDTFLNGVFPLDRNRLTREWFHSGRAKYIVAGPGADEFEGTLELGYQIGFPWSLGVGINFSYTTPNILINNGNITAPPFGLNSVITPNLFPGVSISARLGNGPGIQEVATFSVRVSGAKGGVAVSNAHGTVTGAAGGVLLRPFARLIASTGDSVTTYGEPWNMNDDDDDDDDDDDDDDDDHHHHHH
# T1 sequence (A0QR29 other isoform, or with tags, fused parts or gaps D117C/D118N/D120N/D145R/D161R/E166K): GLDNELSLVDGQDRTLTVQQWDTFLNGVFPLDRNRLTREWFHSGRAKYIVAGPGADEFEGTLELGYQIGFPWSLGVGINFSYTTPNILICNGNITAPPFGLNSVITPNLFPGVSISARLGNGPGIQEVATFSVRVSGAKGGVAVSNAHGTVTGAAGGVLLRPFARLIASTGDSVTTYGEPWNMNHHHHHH
# T2 sequence (A0QR29 28-211 D117N/D118N/D120N/D145R/D161R/E166K): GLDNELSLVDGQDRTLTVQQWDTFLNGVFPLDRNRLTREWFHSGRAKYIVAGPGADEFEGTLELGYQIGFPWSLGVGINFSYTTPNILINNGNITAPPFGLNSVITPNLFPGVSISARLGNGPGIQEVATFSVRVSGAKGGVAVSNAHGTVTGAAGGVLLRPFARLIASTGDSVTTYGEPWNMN
smiles,measurement,setting,value
OC[C@@H](O)[C@@H](O)[C@H](O)[C@@H](O)CO [D-sorbitol],ratio (mean current percentage blockage),[1]; +100 mV,30.43 ± 0.06%
same,std (standard deviation of the blocking level),[1]; +100 mV,5.30 ± 0.17 pA
same,1/τon,"[1]; alditol 2 mM in cis, +100 mV",0.40 ± 0.04 s⁻¹
same,τoff,"[1]; alditol 2 mM in cis, +100 mV",2.1 ± 0.3 s
same,1/τon,"[1]; alditol 4 mM in cis, +100 mV",0.81 ± 0.09 s⁻¹
same,τoff,"[1]; alditol 4 mM in cis, +100 mV",2.11 ± 0.12 s
same,1/τon,"[1]; alditol 6 mM in cis, +100 mV",1.2 ± 0.2 s⁻¹
same,τoff,"[1]; alditol 6 mM in cis, +100 mV",2.2 ± 0.2 s
same,1/τon,"[1]; alditol 8 mM in cis, +100 mV",1.7 ± 0.1 s⁻¹
same,τoff,"[1]; alditol 8 mM in cis, +100 mV",2.2 ± 0.3 s
same,1/τon,[1]; [4],1.67 ± 0.03 s⁻¹
same,1/τon,[1]; [5],1.60 ± 0.06 s⁻¹
same,1/τon,[1]; [6],1.70 ± 0.06 s⁻¹
same,1/τon,[1]; [7],1.70 ± 0.05 s⁻¹
same,binding events with M2 MspA,[2],No binding events were observed
OC[C@@H](O)[C@H](O)[C@@H](O)[C@@H](O)CO [L-sorbitol],ratio (mean current percentage blockage),[1]; +100 mV,30.77 ± 0.06%
same,std (standard deviation of the blocking level),[1]; +100 mV,5.97 ± 0.04 pA
OC[C@@H](O)[C@@H](O)[C@@H](O)CO [adonitol],ratio (mean current percentage blockage),[1]; +100 mV,24.13 ± 0.15%
same,std (standard deviation of the blocking level),[1]; +100 mV,3.83 ± 0.07 pA
OC[C@@H](O)[C@@H](O)[C@@H](O)[C@@H](O)CO [allitol],ratio (mean current percentage blockage),[1]; +100 mV,27.57 ± 0.06%
same,std (standard deviation of the blocking level),[1]; +100 mV,4.64 ± 0.03 pA
OC[C@@H](O)C(O)[C@H](O)CO [arabitol],ratio (mean current percentage blockage),[1]; +100 mV,25.13 ± 0.15%
same,std (standard deviation of the blocking level),[1]; +100 mV,4.71 ± 0.03 pA
"Nc1ncnc2c1ncn2[C@H]1C[C@H](O)[C@@H](COP(=O)(O)O)O1 [dAMP, 2′-deoxyadenosine-5′-phosphate]",sensing events with MspA-PBA,[3]; analyte 1 mM in cis,no dAMP sensing events were observed
OC[C@@H](O)[C@H](O)[C@H](O)[C@@H](O)CO [dulcitol],ratio (mean current percentage blockage),[1]; +100 mV,28.9 ± 0.3%
same,std (standard deviation of the blocking level),[1]; +100 mV,5.22 ± 0.06 pA
OC[C@@H](O)[C@@H](O)CO [erythritol],ratio (mean current percentage blockage),[1]; +100 mV,22.00±0.17%
same,std (standard deviation of the blocking level),[1]; +100 mV,3.24±0.18 pA
same,1/τon,"[1]; alditol 2 mM in cis, +100 mV",0.42 ± 0.05 s⁻¹
same,τoff,"[1]; alditol 2 mM in cis, +100 mV",0.0424 ± 0.0005 s
same,1/τon,"[1]; alditol 4 mM in cis, +100 mV",0.80 ± 0.05 s⁻¹
same,τoff,"[1]; alditol 4 mM in cis, +100 mV",0.0434 ± 0.0032 s
same,1/τon,"[1]; alditol 6 mM in cis, +100 mV",1.16 ± 0.03 s⁻¹
same,τoff,"[1]; alditol 6 mM in cis, +100 mV",0.0423 ± 0.0023 s
same,1/τon,"[1]; alditol 8 mM in cis, +100 mV",1.59 ± 0.09 s⁻¹
same,τoff,"[1]; alditol 8 mM in cis, +100 mV",0.0442 ± 0.0015 s
same,1/τon,[1]; [4],1.62 ± 0.10 s⁻¹
same,1/τon,[1]; [5],1.65 ± 0.11 s⁻¹
same,1/τon,[1]; [6],1.64 ± 0.10 s⁻¹
same,1/τon,[1]; [7],1.65 ± 0.06 s⁻¹
same,binding events with M2 MspA,[2],No binding events were observed
OC[C@@H](O)[C@H](O)[C@@H](O)[C@H](O)CO [iditol],ratio (mean current percentage blockage),[1]; +100 mV,29.3 ± 0.2%
same,std (standard deviation of the blocking level),[1]; +100 mV,6.64 ± 0.03 pA
OC[C@@H](O)[C@@H](O)[C@H](O)[C@H](O)CO [mannitol],ratio (mean current percentage blockage),[1]; +100 mV,29.2 ± 0.3%
same,std (standard deviation of the blocking level),[1]; +100 mV,3.09 ± 0.17 pA
OC[C@@H](O)[C@H](O)[C@H](O)[C@H](O)CO [talitol],ratio (mean current percentage blockage),[1]; +100 mV,27.3 ± 0.2%
same,std (standard deviation of the blocking level),[1]; +100 mV,6.33 ± 0.06 pA
OC[C@@H](O)[C@H](O)CO [threitol],ratio (mean current percentage blockage),[1]; +100 mV,20.3 ± 0.2%
same,std (standard deviation of the blocking level),[1]; +100 mV,5.84 ± 0.18 pA
"O=c1[nH]cc([C@@H]2O[C@H](COP(=O)(O)O)[C@@H](O)[C@H]2O)c(=O)[nH]1 [Ψ, Pseudouridine-5′-monophosphate]",% Ib (percentage blockage),"[3]; NMP 300 μM in cis, N=3",10.2 ± 0.2%
same,S.D. (noise amplitude of blockage level),"[3]; NMP 300 μM in cis, N=3",2.40 ± 0.05 pA
same,τoff (mean dwell time),"[3]; NMP 300 μM in cis, N=3",36.9 ± 3.4 ms
same,τon (mean inter-event interval),"[3]; NMP 300 μM in cis, N=3",2047.7 ± 283.8 ms
same,Calibration coefficient δ (NMP binding events per unit concentration per min),"[3]; sole NMP 300 μM in cis, three independent measurements",0.099 ± 0.014 µM⁻¹ min⁻¹
